Assay [1] has as its target T1, AVP-V2 sites (Rattus norvegicus, UniProt Q00788).
T1 construct: male rat liver (AVP-V1 sites) or kidney medulla (AVP-V2 sites); from tissue; host or cells: male rat kidney medulla, crude membranes
The experiment in a line: [^3 H]AVP binding to crude membrane preparation of male rat kidney medulla (AVP-V2 sites). The protocol: (§1) Nonspecific binding (5-10% of the total binding) was determined using 10 μM unlabeled AVP, and the binding reaction was terminated by filtration as described above for the [^3 H]OT binding assay.

Assay [2] deals with T2, AVP-V1 sites (Rattus norvegicus, UniProt P30560).
T2 construct: crude membrane preparation of male rat liver (AVP-V1 sites); from tissue; host or cells: male rat liver, crude membranes
Description: [^3 H]AVP binding to crude membrane preparation of male rat liver (AVP-V1 sites). As for the experimental part: as §1

For assay [3], the target named is T3, uterine OT receptors (Rattus norvegicus, UniProt P70536).
T3 construct: from tissue; host or cells: uterus of DES-treated rats, crude membranes
T3 sequence (P70536 1-388): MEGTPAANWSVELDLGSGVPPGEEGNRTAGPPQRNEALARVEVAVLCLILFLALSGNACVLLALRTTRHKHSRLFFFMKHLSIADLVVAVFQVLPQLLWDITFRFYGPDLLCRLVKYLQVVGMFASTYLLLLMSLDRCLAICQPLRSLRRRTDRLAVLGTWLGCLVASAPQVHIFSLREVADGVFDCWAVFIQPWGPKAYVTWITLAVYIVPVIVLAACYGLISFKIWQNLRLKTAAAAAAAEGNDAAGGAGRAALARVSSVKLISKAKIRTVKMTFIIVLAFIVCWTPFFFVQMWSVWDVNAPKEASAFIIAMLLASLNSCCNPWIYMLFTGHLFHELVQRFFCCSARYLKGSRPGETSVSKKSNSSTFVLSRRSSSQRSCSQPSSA
The experiment in a line: [^3 H]OT binding to uterine OT receptors, crude membrane preparation of uteri from DES-treated rats. Conditions: rat uterus membranes, 1 nM [^3 H]OT; read-out: Receptor Binding Results IC50 (nM) [^3 H]OT. The protocol:
Competition studies were conducted at equilibrium (60 minutes; 22° C.) using 1 nM [^3 H]OT in the following assay buffer: 50 mM Tris-HCl, 5 mM MgCl2, and 0.1% BSA, pH 7.4.

Where [4] appears, read: rat kidney medulla membranes, 2 nM [^3 H]AVP, read-out: Receptor Binding Results IC50 (nM) [^3 H]-AVP-V2.
Setting [5] is: read-out: Receptor Binding Results IC50 (nM) [^3 H]-AVP-V1.
The mark [6] stands for this setting: read-out: Receptor Binding Results IC50 (nM) [^3 H]-AVP-V2.
[7] abbreviates: Receptor Binding Results IC50 (nM) [^3 H]-AVP-V1.

Where two headings read alike, the source gives them in different places. Numbered stars: 1 amine (or outer) side, 2 acyl side, 3 side chain; on linkers, the order of the positions; unused ones are H or OH. Square brackets hold non-standard residues; d marks the D form. Peptide text beside a SMILES is read from it. * marks the point of attachment. X10 = O=C(O)CN1CCN([*:1])[C@H](C(=O)[*:2])C1; dPiz(1,6-dehydro) = O=C(O)[C@H]1CCC=NN1; Ethylenediamine = C(CN[*:2])N[*:1]; d(hPhe) = N[C@H](CCc1ccccc1)C(=O)O; dNMeH = CN[C@H](Cc1c[nH]cn1)C(=O)O; Pip(4-aza) = O=C(O)[C@@H]1CNCCN1; dNMeF = CN[C@H](Cc1ccccc1)C(=O)O; dPip(4-aza) = O=C(O)[C@H]1CNCCN1; Pip = O=C(O)[C@@H]1CCCCN1; dPip = O=C(O)[C@H]1CCCCN1; Orn = NCCC[C@H](N)C(=O)O; dNMeA = CN[C@H](C)C(=O)O; Cbz = O=C(OCc1ccccc1)*; Boc = CC(C)(C)OC(=O)*

T2 sequence (P30560 whole entry): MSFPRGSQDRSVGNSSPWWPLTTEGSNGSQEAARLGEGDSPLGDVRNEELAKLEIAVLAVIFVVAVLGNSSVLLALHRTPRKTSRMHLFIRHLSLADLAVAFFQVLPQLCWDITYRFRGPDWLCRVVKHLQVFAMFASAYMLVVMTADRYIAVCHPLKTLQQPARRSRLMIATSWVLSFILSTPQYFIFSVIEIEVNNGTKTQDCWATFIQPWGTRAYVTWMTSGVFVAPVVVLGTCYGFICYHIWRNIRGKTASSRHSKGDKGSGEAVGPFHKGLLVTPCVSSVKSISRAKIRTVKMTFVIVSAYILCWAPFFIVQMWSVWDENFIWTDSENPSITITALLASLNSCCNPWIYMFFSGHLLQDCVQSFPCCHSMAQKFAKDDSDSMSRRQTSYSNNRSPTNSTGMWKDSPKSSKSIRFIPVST
T1 sequence (Q00788 whole entry): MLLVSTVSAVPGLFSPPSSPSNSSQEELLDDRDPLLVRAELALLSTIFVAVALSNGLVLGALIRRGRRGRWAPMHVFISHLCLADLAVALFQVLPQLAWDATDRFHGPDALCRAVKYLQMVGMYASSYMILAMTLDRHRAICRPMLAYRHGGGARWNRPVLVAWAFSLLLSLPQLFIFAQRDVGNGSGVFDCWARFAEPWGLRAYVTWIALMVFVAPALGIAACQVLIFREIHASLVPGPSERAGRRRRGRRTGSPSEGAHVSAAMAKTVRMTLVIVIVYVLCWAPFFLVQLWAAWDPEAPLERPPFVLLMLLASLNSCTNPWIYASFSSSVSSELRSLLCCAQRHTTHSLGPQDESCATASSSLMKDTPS

For `CC[C@H](C)[C@@H]1NC(=O)[C@@H](Cc2c[nH]c3ccccc23)NC(=O)[C@@H]2CCCN2C(=O)[C@@H](Cc2c[nH]cn2)N(C)C(=O)[C@@H]2CCCCN2C(=O)[C@H]2CCCCN2C1=O` [Example 19, Cyclo[D-tryptophanyl-L-isoleucyl-D-pipecolyl-L-pipecolyl-D-(N^α methyl)histidyl-L-prolyl]] (cyclo(I[dPip][Pip][dNMeH]P[dW])), the IC50 (as a rule, the concentration at which inhibition is half-maximal) was determined as 4330 nM in assay [1] (setting [4]), 13700 nM in assay [2] (setting [5]) and 18 nM in assay [3].
With `CC[C@H](C)[C@@H]1NC(=O)[C@@H](Cc2ccccc2)NC(=O)[C@@H]2CCCN2C(=O)[C@@H](Cc2ccccc2)N(C)C(=O)[C@H](CC(=O)NCCN)NC(=O)[C@H]2CCCCN2C1=O` [Example 119, c-[D-Phenylalanyl-L-isoleucyl-D-pipecolyl-N^β -(aminoethyl)-L-asparagyl-N-methyl-D-phenylalanyl-L-prolyl]] (cyclo(D(Ethylenediamine)[dNMeF]P[dF]I[dPip])), the figures for the half-maximal inhibitory concentration (IC50) in assay [1] (setting [6]), in assay [2] (setting [5]) and in assay [3] were 3100 nM, 7300 nM and 260 nM, respectively.
Turning to `CC[C@H](C)[C@@H]1NC(=O)[C@@H](Cc2ccccc2)NC(=O)[C@@H]2CCCN2C(=O)[C@@H](Cc2ccccc2)N(C)C(=O)[C@@H]2CCCCN2C(=O)[C@@H](C)N(C)C1=O` [Example 8, Cyclo[D-Phenylalanyl-L-isoleucyl-D-(N^α methyl)alanyl-L-pipecolyl-D-(N^α methyl)phenylanyl-L-prolyl]] (cyclo(I[dNMeA][Pip][dNMeF]P[dF])), the half-maximal inhibitory concentration (IC50) was greater than 10000 nM in assay [1] (setting [4]), greater than 10000 nM in assay [2] (setting [7]) and 850 nM in assay [3].
In the case of `CC[C@H](C)[C@@H]1NC(=O)[C@@H](Cc2ccccc2)NC(=O)[C@@H]2CCCN2C(=O)[C@@H](Cc2ccccc2)NC(=O)[C@@H]2CNCCN2C(=O)[C@H]2CCCN2C1=O` [Example 164, c-[D-Phenylalanyl-L-isoleucinyl-D-prolyl-L-piperazin-2-yl-D-phenylalanyl-L-prolyl]] (cyclo(I[dP][Pip(4-aza)][dF]P[dF])), the concentration for half-maximal inhibition (IC50) in assay [1] (setting [4]) is greater than 10000 nM; in assay [2] (setting [7]) it was 10000 nM; in assay [3], 1300 nM.
In the same order, the values of `CC[C@H](C)[C@@H]1NC(=O)[C@@H](Cc2ccccc2)NC(=O)[C@@H]2CCCN2C(=O)C(Cc2cccnc2)NC(=O)[C@@H]2CCCCN2C(=O)[C@H]2CCCCN2C1=O` (single isomer, unassigned) [Example 10 (isomer 2), Cyclo[D-Phe-L-Ile-D-Pip-L-Pip-D,L-3-PyrAla-L-Pro]] are 10000 nM, greater than 10000 nM and 1000 nM.
As to `CC[C@H](C)[C@@H]1NC(=O)[C@@H](Cc2ccccc2)NC(=O)[C@@H]2CCCN2C(=O)[C@@H](Cc2c[nH]cn2)NC(=O)[C@H](CCCCNC(=O)OCc2ccccc2)NC(=O)[C@H]2CCCCN2C1=O` [Example 37, Cyclo[D-Phenylalanyl-L-isoleucyl-D-pipecolyl-L-(carbobenzyloxy)lysyl-D-histidyl-L-prolyl]] (cyclo(I[dPip]K(Cbz)[dH]P[dF])), the IC50 in assay [1] (setting [4]) is greater than 10000 nM; in assay [2] (setting [7]) it was 10000 nM; in assay [3], greater than 100 nM.
Regarding `CC[C@H](C)[C@@H]1NC(=O)[C@@H](Cc2c[nH]c3ccccc23)NC(=O)[C@@H]2CCCN2C(=O)[C@@H](Cc2ccccc2)N(C)C(=O)[C@@H]2CN(CC(=O)O)CCN2C(=O)[C@H]2CCCCN2C1=O` [Example 181, c-[D-Tryptophanyl-L-isoleucinyl-D-pipecolyl-L-piperazin-2-yl(4-carboxymethyl)-D-(N^α -Me)phenylalanyl-L-prolyl]] (cyclo(I[dPip][X10][dNMeF]P[dW])), the inhibition at 10 µM in assay [1] (0.5 h, @ 10,000 (nM), read-out: [^3 H]-AVP-V2: percent inhibition of radioligand at the given concentration) was found to be 73%. The concentration for half-maximal inhibition (IC50) in assay [2] (setting [7]) was greater than 10000 nM; in assay [3], 100 nM.
For the molecule `CC[C@H](C)[C@@H]1NC(=O)C(Cc2c[nH]c3ccc(F)cc23)NC(=O)[C@@H]2CCCN2C(=O)[C@@H](Cc2c[nH]cn2)NC(=O)[C@@H]2CCCCN2C(=O)[C@H]2CCCCN2C1=O` (single isomer, unassigned) [157 higher Rf], the IC50 is greater than 10000 nM in assay [1] (setting [4]), 10000 nM in assay [2] (setting [7]) and 590 nM in assay [3].
With `CC[C@H](C)[C@@H]1NC(=O)[C@@H](Cc2ccccc2)NC(=O)[C@@H]2CCCN2C(=O)C(Cc2cccnc2)NC(=O)[C@@H]2CCCCN2C(=O)[C@H]2CCCCN2C1=O` (single isomer, unassigned) [Example 10 (isomer 1), Cyclo[D-Phe-L-Ile-D-Pip-L-Pip-D,L-3-PyrAla-L-Pro]], the values for the IC50 in assay [1] (setting [4]), in assay [2] (setting [7]) and in assay [3] were greater than 10000 nM, greater than 10000 nM and 1000 nM, respectively.
With `CC[C@H](C)[C@@H]1NC(=O)[C@@H](CCc2ccccc2)NC(=O)[C@@H]2CCCN2C(=O)[C@@H](Cc2ccccc2)N(C)C(=O)[C@@H]2CCCCN2C(=O)[C@H]2CCCCN2C1=O` [Example 165, c-[D-Homophenylalanyl-L-isoleucyl-D-pipecolyl-L-pipecolyl-N-Me-D-phenylalanyl-L-prolyl]] (cyclo(I[dPip][Pip][dNMeF]P[d(hPhe)])), the values for the 50% inhibitory concentration (IC50) in assay [1] (setting [6]), in assay [2] (setting [5]) and in assay [3] were 2600 nM, 6600 nM and 150 nM, respectively.
`CC[C@H](C)[C@@H]1NC(=O)[C@@H](Cc2ccccc2)NC(=O)[C@@H]2CCCN2C(=O)[C@@H](Cc2ccccc2)N(C)C(=O)[C@H](CCCCN)NC(=O)[C@H]2CCC=NN2C1=O` [Example 174, c-[D-Phenylalanyl-L-isoleucyl-D-Δ-piperazyl-L-Lysyl-N-Me-D-phenylalanyl-L-prolyl]] (cyclo(I[dPiz(1,6-dehydro)]K[dNMeF]P[dF])): the 50% inhibitory concentration (IC50) in assay [1] (setting [6]) worked out at 570 nM; in assay [2] (setting [5]), 610 nM; in assay [3] it was 21 nM.
As for `CC[C@H](C)[C@@H]1NC(=O)[C@@H](Cc2c[nH]c3ccccc23)NC(=O)[C@@H]2CCCN2C(=O)[C@@H](Cc2ccccc2)N(C)C(=O)[C@H](CCCNC(=O)OC(C)(C)C)NC(=O)[C@H]2CCC=NN2C1=O` [Example 126, c-[D-Tryptophanyl-L-isoleucyl-D-Δ-piperazyl (N^δ -Boc)-L-ornithyl-N-methyl-D-phenylalanyl-L-prolyl]] (cyclo(I[dPiz(1,6-dehydro)][Orn](Boc)[dNMeF]P[dW])), the IC50 in assay [1] (Receptor Binding Results IC50 (nM) [^3 H]-AVP-V2) was 1000 nM; in assay [2] (setting [7]), greater than 1000 nM; in assay [3] it was 15 nM.
As for `CC[C@H](C)[C@@H]1NC(=O)[C@@H](Cc2ccc(O)cc2)NC(=O)[C@@H]2CCCN2C(=O)[C@@H](Cc2ccccc2)N(C)C(=O)[C@H](CCCCN)NC(=O)[C@H]2CCCCN2C1=O` [Example 147, C-[D-Tyrosyl-L-isoleucyl-D-pipecolyl-L-lysyl-D-(N-methyl)phenylalanyl-L-prolyl]] (cyclo(I[dPip]K[dNMeF]P[dY])), the IC50 in assay [1] (setting [4]) came out at 10000 nM; in assay [2] (setting [7]), 10000 nM; in assay [3], 860 nM.
`CC[C@H](C)[C@@H]1NC(=O)[C@@H](Cc2ccccc2)NC(=O)[C@@H]2CCCN2C(=O)[C@@H](Cc2ccccc2)NC(=O)[C@H]2CNCCN2C(=O)[C@H]2CCCCN2C1=O` [Example 78, c-[D-Phenylalanyl-L-isoleucinyl-D-pipecolyl-D-piperazin-2-yl-D-phenylalanyl-L-prolyl]] (cyclo(I[dPip][dPip(4-aza)][dF]P[dF])): the concentration for half-maximal inhibition (IC50) in assay [1] (setting [4]) was greater than 10000 nM; in assay [2] (setting [5]) it was 7900 nM; in assay [3] it was 300 nM.

The values above are taken from patent US5225528A, “Cyclic hexapeptide oxytocin antagonists” (priority 1990, dated 1993).
